Source: PMC7176276, “Elucidating the possible mechanism of action of some pathogen box compounds against Leishmania donovani” (PLoS Neglected Tropical Diseases, 2020)

Columns and labels:
[1] = test system: Leishmania donovani promastigotes; experiment: In vitro antileishmanial activity assay, promastigotes (MTT); assay type: cell-based; settings: for Therapeutic Index (TC50/IC50) promastigotes: TC50 RAW 264.7 / IC50 promastigotes
[2] = test system: RAW 264.7 macrophage cell line; experiment: Cytotoxicity test against RAW macrophage cell line using MTT assay; assay type: cell-based, murine; settings: RAW 264.7, 48 hours
Description: A murine macrophage cell line (RAW 264.7) was cultured in DMEM medium supplemented with penicillin G sodium (100 μg/mL), streptomycin sulfate (100 μg/mL) and 10% FBS. Macrophages at a density of 1 x 10^6 cells/mL were incubated at different concentrations (ranging from 0.39–100 μg/mL) of the compounds for 48 hours in a CO2 incubator (5% CO2, 37° C). Macrophages without any treatment were taken as negative control and amphotericin B was used as positive control. At the termination of the assay, MTT was added and incubated for an additional 3 hours. Acidified isopropanol was added to the set-up to solubilize the formazan crystals formed by the viable cells. The intensity of formazan formation was read on an Elisa plate reader (Varioskan Lux Elisa microplate reader, Thermo Fischer Scientific, USA) at 570 nm. The 50% cytotoxic concentrations (CC50) of the compounds were determined by analysis of dose-response curves. Selectivity index or therapeutic index was calculated as a ratio of CC50 RAW 264.7/IC50 L. donovani promastigotes or amastigotes.

[3] = test system: Leishmania donovani promastigotes; experiment: Growth kinetics assay against promastigotes; assay type: cell-based; settings: for incubation time after which decline in the parasite population was observed: promastigotes, 1μg/mL
Description: Promastigotes of L. donovani (2 x 10^4 cells) were incubated at 25° C in the presence of the test compounds (at 1μg/mL for each compound) in M199 containing 10% FBS (complete medium). Promastigotes treated with amphotericin B (0–50 μg/ml) served as positive control while untreated promastigotes in the medium alone served as negative control. Aliquots from treated and control parasites were diluted in 0.02 M PBS (pH 7.2) and the viable cells counted daily for 5 days using a Neubauer haemocytometer and a phase-contrast microscope under a 40x objective.

[4] = test system: Leishmania donovani promastigotes; experiment: Growth reversibility assay (cytocidal/cytostatic) against promastigotes; assay type: cell-based; settings: for cytocidal or cytostatic effect: growth reversibility profile after drug withdrawal; for growth reversal / reversibility of growth inhibition: promastigotes washed after 5 days of treatment; for growth reversal: regrown 4 days in fresh medium; for reversibility of growth inhibition: regrown 4 days
Description: However, to confirm the cytocidal or cytostatic effect of the test compounds, the treated and untreated parasites after 5 days of incubation were washed twice with fresh M199 and then resuspended in complete M199 media and allowed to grow further at 25° C; the viable promastigotes were enumerated microscopically after 4 days.

[5] = test system: human red blood cells; experiment: Haemolysis assay against the human red blood cells; assay type: cell-based; settings: 2% haematocrit, 3 hours
Description: The haemolytic effect of the compounds were tested against the human red blood cells at a density of 2% haematocrit. The method described by Kazi et al was used with slight modification. In this study, human red blood cells were used, the respective test compounds were incubated for 3 hours and 1% triton X100 served as the positive control. At the end of the assay the supernatant was read on a microtiter plate reader (Varioskan Lux Elisa microplate reader, Thermo Fischer Scientific, USA) at 415 nm. The 50% haemolytic concentration (HC50) of the compounds were determined by analysis of dose-response curves.

[6] = test system: Leishmania donovani promastigotes; experiment: Morphological and mitochondrion integrity analysis by fluorescence microscopy (DAPI, MitoTracker); assay type: cell-based; settings: 1μg/mL; for parasite cells with degeneration/disintegration of DNA (nucleus, kinetoplast) and mitochondrion: 72 hours
Description: Leishmania donovani promastigotes (2 x 10^4 cells) were treated with the test compounds at 1μg/mL (point concentration). They were then incubated for 24 hours and 72 hours in order to study their morphological changes and to see the changes in their mitochondrial integrity using DAPI and MitoTracker red dye respectively. The assay was performed using the methods described by Amisigo et al with slight modifications. Here the Mitotracker red dye was added to the pelleted promastigote cells at a concentration of 100 nM, resuspended in 1 mL of FBS-free M199 media with 1% BSA (Bovine Serum Albumin) and incubated for 30 minutes.

[7] = test system: Leishmania donovani amastigotes; experiment: In vitro antileishmanial activity assay, macrophage-amastigotes model (MTT); assay type: cell-based; settings: TC50 RAW 264.7 / IC50 amastigotes
Description: Leishmania donovani (MHOM/SD/62/1S strain) was a kind gift from Dr. Yamthe Lauve (Bei Resources NIAID, NIH). The promastigotes were cultured in M199 medium supplemented with 10% heat-inactivated fetal bovine serum (FBS), penicillin G sodium (100 μg/mL) and streptomycin sulfate (100 μg/mL) at 25° C and subcultured every 72 hours in the same medium at a mean density of 1 x 10^5 cells/mL [9]. The murine macrophage cell line RAW 264.7 (RIKEN BioResource Centre Cell Bank, Japan) were kindly provided by Professor Regina Appiah-Opong of the Clinical Pathology Department, Noguchi Memorial Institute for Medical Research, Ghana. RAW 264.7 were grown at 37° C in DMEM medium (pH 7.4) supplemented with 10% heat-inactivated FBS for 48–72 hours in 5% CO2 and subcultured in fresh DMEM medium at a mean density of 1 x 10^5 cells/mL.
Amphotericin B was used as a reference antileishmanial drug (positive control). RAW 264.7 macrophage cells were infected with promastigotes at a density of 1:10 ratio for 12 hours, after which the non-phagocytosed promastigotes were discarded (by aspirating them alongside the media) and the amastigote cells within the macrophages were treated with the compounds (in fresh complete media) to test their growth inhibitory activity using the method described previously. Parasite viability was assessed using the 3-(4,5-Dimethylthiazol-2-yl)-2,5-diphenyltetrazolium bromide (MTT) method in which the rate of formazan crystal formation was used as an index of cell viability as described by Mosmann. Fluorescence was measured with a Varioskan Lux Elisa microplate reader (Thermo Fischer Scientific, USA) at a wavelength of 570 nm. The fluorescence counts were plotted against the drug concentrations and the 50% inhibitory concentration (IC50) was determined by analysis of the dose-response curves using excel.

[8] = test system: L. infantum; design: method as in PMID 25690568; settings: earlier report ref 18; cited from earlier work
[9] = test system: Leishmania donovani promastigotes; experiment: Apoptotic and necrotic potentials, Annexin V-FITC/PI flow cytometry; assay type: cell-based; settings: 2x IC50, 24 hours; far less than in the untreated cells
Description: Briefly, treated promastigote cells were washed twice with cold 1x PBS and then resuspended in 1x binding buffer at a cell density of 1 x 10^6 cells/mL. To a 100 μL of the suspended cells, 5 μL of Annexin V-FITC and 5 μL of Propidium Iodide (PI) were added. The mixture was gently vortexed and allowed to incubate for 15 minutes at room temperature (25°C) in the dark. To the set-up, 400 μL of 1x binding buffer was added and the assay was read by flow cytometry (BD LSR Fortessa X-20 analyzer BD Biosciences, San Jose, CA 95131 USA) and the results analyzed using FlowJo version 10 software.

[10] = test system: Leishmania donovani promastigotes; experiment: Cell cycle progression analysis by flow cytometry; assay type: cell-based; settings: 2x IC50, 24 hours; for change in the number of cells at the G2/M phase: versus untreated
Description: Guava Cell Cycle Reagent (catalog No. 4500–0220) was used to stain the cells and the number of cells in G0/G1, S and G2/M phases were determined. Briefly, treated and untreated cells were pelleted and fixed in 70% ice-cold ethanol for an hour at -20°C, the suspended cells were then pelleted by centrifugation at 1500 rpm for 10 minutes. The supernatants were discarded, and the pelleted cells were washed twice with 1X PBS to ensure total removal of the ethanol. To a 200 μL of the cell pellets, a 200 μL of the Gauva Cell Cycle Reagent was added and incubated at room temperature (25°C) for 30 minutes in the dark. Cell distribution at the distinct cell cycle phases were measured using flow cytometer (BD LSR Fortessa X-20 analyzer BD Biosciences San Jose, CA 95131 USA). Data generated were analyzed using the FlowJo V10 software.

[11] = test system: Leishmania donovani promastigote; design: method as in PMID 25690568; settings: earlier report ref 18; cited from earlier work
[12] = test system: Leishmania donovani amastigote; design: method as in PMID 25690568; settings: earlier report ref 18; cited from earlier work
[13] = test system: L. major; design: method as in PMID 25690568; settings: earlier report ref 18; cited from earlier work

SMILES | Therapeutic Index (TC50/IC50) promastigotes [1] | TC50(μM)±SD RAW [2] [µM] | cytocidal or cytostatic effect [4] | growth reversal [4] [%] | incubation time after which decline in the parasite population was observed [3] [h] | HC50 (50% haemolytic concentration) [5] [µg/mL] | parasite cells with degeneration/disintegration of DNA (nucleus, kinetoplast) and mitochondrion [6] | Therapeutic Index (TC50/IC50) amastigotes [7] | apoptosis and necrosis of promastigotes [9] | cells at the S phase [10] [%] | change in the number of cells at the G2/M phase [10] | reversibility of growth inhibition [4] | parasite cells showing no obvious DNA and mitochondrion abnormality ([6]; 24 hours) | other results
C[C@@H]1[C@H](O)[C@@H](C)/C=C/C=C/C=C/C=C/C=C/C=C/C=C/[C@H](O[C@@H]2O[C@H](C)[C@@H](O)[C@H](N)[C@@H]2O)C[C@@H]2O[C@](O)(C[C@@H](O)C[C@@H](O)[C@H](O)CC[C@@H](O)C[C@@H](O)CC(=O)O[C@H]1C)C[C@H](O)[C@H]2C(=O)O [Amphotericin B, amphotericin B, reference compound] | 3.0 | 15.75 ± 0.03 | – | – | – | – | – | – | – | – | – | – | – | IC50 ([1]; Leishmania donovani, 96 h, promastigotes, 4 days at 25° C, MTT, mean ±SD of three experiments): 5.3 ± 0.03 µM; effect on growth of promastigotes (growth kinetics) ([3]; viable cells counted daily for 5 days, compared with untreated control): no viable cells observed after 24 hours
CNC(=O)C1Cc2ccccc2N1C(=O)Cc1ccc(F)cc1 (centres unmarked) [MMV188296] | 914 | – | cytostatic | 56.5 | 48 | >100 | more than 90% | 237 | – | – | – | – | – | parasite population with loss in mitochondrion integrity ([6]; 24 hours): 40%
CC(C)(C)OC(=O)N1CCN(c2[nH]nnc2-c2ccc(Oc3ccccc3)cc2)CC1 [MMV676057] | 432 | – | cytocidal | – | 48 | >100 | about 85% | 16 | slight apoptosis and necrosis | 23 | no significant change | not reversible | About 70% | IC50 [8]: 10.2 µM; cells at the G0-G1 phase ([10]; untreated 30%): 23%; IC50 [11]: 1.3 µM; IC50 [12]: > 10 µM; IC50 [13]: 13 µM
Cc1nn2c(=O)c3c([nH]c2c1-c1ccc(Cl)cc1)CCCC3 [MMV688776] | 19 | 50 ± 0.02 | cytostatic | 57.9 | 24 | >100 | About 70% | 1 | – | – | – | – | About 70% | –
CCc1nn(C)c(C(=O)NCc2ccc(Oc3ccc(C)cc3)cc2)c1Cl [MMV688934] | 416 | – | cytostatic | 32.3 | 24 | >100 | more than 90% | 453 | – | – | – | – | – | promastigotes showing enlargement of the nucleus and kinetoplast with the mitochondria losing its normal shape ([6]; 24 hours): 70%
CC(C)(C)C(O)C(Oc1ccc(-c2ccccc2)cc1)n1cncn1 (centres unmarked) [MMV688942] | 43 | – | cytocidal | – | 48 | >100 | 85% | 16 | slight apoptosis and necrosis | 28 | no significant change | not reversible | – | parasites showing loss of kinetoplast ([6]; 24 hours): about 30%
